Experimental data published in patent US10245328B2, “Gadolinium complex comprising DO3A-tranexamic acid conjugate” (KYUNGPOOK NATIONAL UNIVERSITY INDUSTRY-ACADEMIC COOPERATION …, priority 2014, dated 2019).
Entries after “also recorded” stand apart in the source; their conditions may differ.

Legend:
[1] = Relaxation rate measurement (R1, R2) in PBS and in PBS solution of HSA; type: physicochemical; details: 293K
Method: T1 measurement is carried out using an inversion recovery method at 1.5 T (64 MHz) in a variable inverse time (TI). MR images are obtained for 35 different TI values in a range of 50 to 1750 ms. A T1 relaxation time is obtained from a nonlinear least-squares fit of a signal strength measured at each TI value. For a T2 CPMG (Carr-Purcell-Meiboon-Gill) pulse sequence measurement, the measurement is adapted to a multi spin-echo measurement. 34 images are obtained at 34 different echo time (TE) values in a range of 10 to 1900 ms. The T2 relaxation time is obtained from a nonlinear least-squares fit of mean pixel values for multi spin-echo measurement at each echo time. Next, a relaxation rate (R1 and R2) is calculated as an inverse of a relaxation time per mM. The determined relaxation time (T1 and T2) and relaxation rate (R1 and R2) are subjected to an image processing to get a relaxation time map and relaxation rate respectively.
For comparison between the complexes 2a-e, there is no noticeable difference in R1's. The measurement is carried out for two different media, that is, PBS (pH=7.4) and PBS solution of HAS in order to indicate which blood-pool effect is expressed by the complexes 2a-e.

[2] = test system: ICR mice; test: In vivo MR experiment, T1-weighted images after tail vein injection; details: 0.1 mmol Gd/kg i.v.
Method: The in vivo experiment is executed with compliance to a regulation of Animal Research Committee of KNU. 29-31 g weight 6-weeks male ICR mice are used. […] The measurement is carried out before and after the injection of the complexes 2a-e through the tail vein. […] After the mice wake from the anesthesia after each measurement, the mice were placed in a cage capable of free access to feed and food. For this measurement, the animals are held at about 37° C. using a warm water blanket. MR images are taken using a 1.5 T MR unit (GE Healthcare, Milwaukee, Wis.) with a manual RF coil for a small animal. The coil may be of a receiver type having a 50 mm inner diameter. […] MR images are collected for 24 h after the injection. Anatomical positions having an improved contrast are set for a liver, a bile duct, and a kidney on (post contrast) MR images. For quantitative measurements, a signal intensity in a region of interest (ROI) is measured using Advantage Window software (GE medical, U.S.). The CNR is calculated using a following equation (1): […] SNR is a […].

[3] = Kinetic stability in various pH ranges (evolution of R1 in PBS); type: physicochemical; details: pH 1, [Gd]=1.0 mM in PBS, room temperature
Method: The kinetic stability is expressed as evolution of a water proton relaxation rate (R1) for 2 ([Gd]=1.0 mM) in PBS under various pH conditions (pH: 1, 3, 5, 7, 9 and 11) at a room temperature, as a function of the incubation time. The measurement is executed on a 1.5 T whole body system (GE Healthcare, Milwaukee, Wis., USA).

[4] = Stability against hydrolysis in H2O (HPLC, 197 nm); type: physicochemical; details: for HPLC peak 2.31 min, 2b / HPLC peak 27.11 min, 2a (trans) / HPLC peak 30.48 min, 2a (cis) / HPLC peak 52.24 min: 2a in water
Method: The contrast agents of the present series 100 mg are dissolved in distilled water 10 mL and is maintained as they are for 72 hours at 50° C. Using HPLC, O.D. (Optical Density) values are read at 197 nm and the stability of the agents is determined. The substances at each retention time are examined using LC Mass Spectroscopy for accurate identification of decomposed products.

[5] = Transmetalation kinetics with ZnCl2, evolution of R1P(t)/R1P(0); type: physicochemical; details: 72 h; phosphate buffer pH 7.4, 2.5 mmol/L Gd complex + 2.5 mmol/L ZnCl2, room temperature, 3T
Method: This experiment is prepared using a previous document method (Laurent, S. Elst, L. V.; Copoix, F.; Muller, R. N. Investigative radiology 2001, 36, 115). This is based on measurements of evolution of a water proton longitudinal relaxation rate (R1P) of a buffer solution (phosphate buffer, pH 7.4) containing 2.5 mmol/L gadolinium complex and 2.5 mmol/L ZnCl2. Next, 10 μL ZnCl2 250 mmol/L solution is added to a […] paramagnetic complex buffer solution. The mixture is strongly agitated, and then, 300 μL thereof is taken for a relaxation measurement (relaxometric measurement). […] A R1P relaxation rate is acquired by excluding a diamagnetic contribution of a water proton relaxation from the measured relaxation rate R1=(1/T1). The measurement is performed at a room temperature on a 3T whole body system (Magnetom Tim Trio, Simens, Korea Institute of Radiological & Medical Science).
An evaluation of a normal paramagnetic longitudinal relaxation rate R1P (t)/R1P (0) is observed between the present series 2a-e and comparison examples Dotarem®, Primovist®, Multihance®, and Omniscan® (FIG. 4). The used complex in the test is divided into two following groups based on an evolution pattern: (i) a group employing a macrocyclic chelate (ii) a group employing an acyclic chelate. […]

[6] = PBS solution of 0.67 mM HSA, 64 MHz

Row | portion of the initial paramagnetic relaxation rate kept, R1P(t)/R1P(0) [5] [%] | SMILES | R1 ([1]; PBS pH 7.4, 64 MHz (1.5 T)) [mM⁻¹ s⁻¹] | R2 ([1]; PBS pH 7.4, 64 MHz (1.5 T)) [mM⁻¹ s⁻¹] | R1 in 0.67 mM HSA [1, 6] [mM⁻¹ s⁻¹] | R2 in 0.67 mM HSA [1, 6] [mM⁻¹ s⁻¹] | signal enhancement / signal strength at the liver ([2]; ICR mice, 1.5 T, initial 1 hour) | liver-specificity / class of contrast agent ([2]; in vivo MR images of mice) | kinetic stability (evolution of R1) [3] | hydrolytic stability (in words) ([4]; 100 mg in distilled water 10 mL, 72 hours at 50° C.) | HPLC peak 2.31 min, 2b ([4]; 50° C./3 day) [%] | HPLC peak 27.11 min, 2a (trans) ([4]; 50° C./3 day) [%] | HPLC peak 30.48 min, 2a (cis) ([4]; 50° C./3 day) [%] | HPLC peak 52.24 min ([4]; 50° C./3 day) [%] | HPLC peak 2.31 min, 2b ([4]; initial) [%] | HPLC peak 27.11 min, 2a (trans) ([4]; initial) [%] | HPLC peak 30.48 min, 2a (cis) ([4]; initial) [%] | HPLC peak 52.24 min ([4]; initial) [%]
1 | – | CCOC(=O)C1CCC(CNC(=O)CN2CCN(CC(=O)[O-])CCN(CC(=O)[O-])CCN(CC(=O)[O-])CC2)CC1.[Gd+3] (stereo not drawn) [2a] | 4.84 ± 0.18 | 4.91 ± 0.25 | 5.11 ± 0.10 | 6.04 ± 0.13 | insufficient to be qualified as the liver-specific contrast agent | exhibits the liver-specificity; also recorded: true liver-specific contrast agent | sufficient kinetic stability | hydrolytic stability falls | 0.72 | 97.43 | 1.25 | 0.19 | 0.01 | 97.73 | 1.89 | 0.04
2 | 50 | CNC[C@H](O)[C@@H](O)[C@H](O)[C@H](O)CO.CNC[C@H](O)[C@@H](O)[C@H](O)[C@H](O)CO.O=C([O-])CN(CCN(CC(=O)[O-])CC(=O)O)CCN(CC(=O)O)C(COCc1ccccc1)C(=O)[O-].[Gd+3] (stereo not drawn) [Multihance, Gd-BOPTA] | – | – | – | – | – | – | – | – | – | – | – | – | – | – | – | –
3 | 50 | CCOc1ccc(CC(CN(CCN(CC(=O)[O-])CC(=O)[O-])CC(=O)[O-])N(CC(=O)[O-])CC(=O)[O-])cc1.[Gd+3].[Na+].[Na+] (stereo not drawn) [Primovist, Gd-EOB-DTPA] | – | – | – | – | – | – | – | – | – | – | – | – | – | – | – | –
